Test results as given in article PMC12249711, “Comprehensive Evaluation of 1H-Isoindole-1,3(2H)-Dione Derivatives: Pharmacokinetic Studies and Analgesic Potential in Various Pain Models” (International Journal of Molecular Sciences, 2025).

Assays:
rats = assay: Carrageenan-induced paw edema (plethysmometer); format: in vivo, Wistar rats; conditions: for Change in Edema Volume: mean ± SEM, rats; for Reduction in edema volume: vs control
Description: The acute and local inflammation and paw edema was induced by intraplantar (i.pl.) injection of 0.1 mL of 1% carrageenan solution in PBS into the rat’s right hind paw, according to the modified method of Winter and Lence, as described previously; (n = 84). […] Vehicle (1% Tween 80) was administered by the same route as the tested compounds.

mice [1] = assay: Streptozotocin-induced diabetic neuropathy, von Frey test (tactile allodynia); format: in vivo, Albino Swiss mice; conditions: diabetic (STZ) mice, 10 mg/kg i.p.; for Pain threshold after compound administration (von Frey): 30 min before the test; for Analgesic activity (von Frey): vs pre-drug threshold
Description: (§1) The induction of diabetes neuropathy in mice was achieved through the administration of streptozotocin (STZ), dissolved in PBS at a dose of 200 mg/kg in a constant volume of 0.1 mL/10 g of mouse body weight, intraperitoneally; (n = 50). Blood glucose levels were measured immediately prior to the administration of streptozotocin and 14 and 21 days following this administration in order to confirm the presence of hyperglycemia. For this purpose, 5 µL of blood was drawn from the tail vein of the mice using a strip glucose meter (AccuChek Active, Roche, Boulogne-Billancourt, France).
Furthermore, to assess the response to mechanical stimuli (i.e., tactile/mechanical) allodynia), the von Frey test was carried out with application of the electronic von Frey unit (Panlab, Cornellà de Llobregat, Spain) equipped with a fiber, the distal end of which was applied to the right hind paw of the mouse. The device automatically recorded the pressure force (in grams) applied until the paw withdrawal response occurred. In the absence of pain, an increase in the pressure value was observed. The force at which the animal withdrew its paw was considered the pain threshold for the mechanical stimulus. Measurements were taken before streptozotocin administration (in normoglycemic mice) and again 21 days later, both before and after compound administration, in diabetic mice (glucose level > 300 mg/dL) that had developed mechanical allodynia. On the day of the experiment, each mouse was placed in an observation chamber with a wire mesh bottom and was allowed to habituate for 1 h. After the habituation period, in order to obtain baseline values, each mouse was tested 3 times alternately in each hind paw, allowing at least 30 s between each measurement. Then, the mice were pretreated intraperitoneally with compound or vehicle, and 30 min later the animals were tested again and three measurements were taken, the mean of which was calculated to obtain the mean values after drug administration for each mouse. The anti-allodynic effect was defined as an increase in the pressure force value required to elicit a pain response, compared to the control group.

mice [2] = assay: Streptozotocin-induced diabetic neuropathy, hot plate test (thermal hyperalgesia); format: in vivo, Albino Swiss mice; conditions: diabetic (STZ) mice, 10 mg/kg i.p.; for Analgesic activity (hot plate): vs pre-drug latency
Description: as §1
To assess increased sensitivity to thermal stimuli, we used a hot plate testing apparatus (Panlab/Harvard Apparatus, Cornellà de Llobregat, Spain), following the methodology originally described by. In this procedure, after determining the baseline pain response time, 30 min after drug administration, mice were placed on a hot plate maintained at 55 °C and monitored for pain-related behaviors such as licking their hind paws or jumping. To avoid potential damage to paw tissue, a time limit of 45 s was set.

[3] = design: method as in PMID 35396875; conditions: within the tested dose range; cited from earlier work
[4] = design: method as in PMID 35396875; conditions: initial in vivo screening; cited from earlier work
[5] = 10 mg/kg i.p., 1 h after carrageenan
[6] = 10 mg/kg i.p., 2 h after carrageenan
[7] = 10 mg/kg i.p., 3 h after carrageenan
[8] = 20 mg/kg i.p., 1 h after carrageenan
[9] = 20 mg/kg i.p., 2 h after carrageenan
[10] = 20 mg/kg i.p., 3 h after carrageenan

Row | Structure (SMILES) | Change in Edema Volume (rats; [5]) | Change in Edema Volume (rats; [6]) | Change in Edema Volume (rats; [7]) | Reduction in edema volume (rats; 10 mg/kg, 1 h) [%] | Reduction in edema volume (rats; 10 mg/kg, 2 h) | Reduction in edema volume (rats; 10 mg/kg, 3 h) [%] | Change in Edema Volume (rats; [8]) [mL] | Change in Edema Volume (rats; [9]) [mL] | Change in Edema Volume (rats; [10]) | Reduction in edema volume (rats; 20 mg/kg, 2 h) [%] | Reduction in edema volume (rats; 20 mg/kg, 3 h) [%] | Pain threshold after compound administration (von Frey) (mice [1]) [g] | Analgesic activity (von Frey) (mice [1]) [%] | Pain response latency time after compound administration (hot plate, 55 °C) (mice [2]) | Analgesic activity (hot plate) (mice [2]) [%] | Effect on locomotor activity / sedation [3] | Reduction in edema volume (rats; 20 mg/kg, 1 h) [%] | Activity in central (supraspinal) pain model, hot plate test [4]
1 | O=C1c2ccccc2C(=O)N1CC(O)CN1CCN(c2ccccc2)CC1 (centres unmarked) [Compound F1] | 1.14 ± 0.05 mL | 1.51 ± 0.09 mL | 1.67 ± 0.09 mL | 27.8 | 17.5% | 17 | 1.09 ± 0.02 | 1.15 ± 0.07 | 1.55 ± 0.09 mL | 37.2 | 22.1 | 4.28 ± 0.32 | 48.6 | 25.59 ± 1.84 s | 56.6 | mild sedative effects |  | 
2 | COc1ccccc1N1CCN(CC(O)CN2C(=O)c3ccccc3C2=O)CC1 (centres unmarked) [Compound F2] | 1.51 ± 0.04 ns mL | 1.82 ± 0.03 mL | 1.99 ± 0.02 ns mL |  | approximately 9% |  | 1.15 ± 0.08 | 1.63 ± 0.04 | 1.91± 0.03 ns mL | 17.7 |  | 4.58 ± 0.29 | 39.4 | 30.36 s | 49.33 | dose-dependent suppression of spontaneous locomotor activity | 26.8 | 
3 | O=C1c2ccccc2C(=O)N1CC(O)CN1CCN(c2cccc(C(F)(F)F)c2)CC1 (centres unmarked) [Compound F3] | 1.37 ± 0.04 ns mL | 1.70 ± 0.04 ns mL | 1.89 ± 0.03 mL |  |  | 9.5 | 1.14 ± 0.05 | 1.47 ± 0.07 | 1.67 ± 0.06 mL | 19.2 | 20.1 | 5.21 ± 0.32 | 81.13 | 24.24 ± 1.46 s | 42.92 | mild sedative effects | 16.8 | 
4 | O=C1c2ccccc2C(=O)N1CC(O)CN1CCN(C(c2ccccc2)c2ccccc2)CC1 (centres unmarked) [Compound F4] | 1.37 ± 0.04 mL | 1.56 ± 0.06 mL | 1.85 ± 0.04 mL | 8.7 | 17% | 15.5 | 1.23 ± 0.01 | 1.47 ± 0.05 | 1.73 ± 0.02 mL | 21.8 | 21 | 3.98 ± 0.23 | 38.29 | did not affect the latency time |  | did not impair locomotor activity | 18 | inactive
